The results in this text go back to ChEMBL document CHEMBL1201862, “PubChem BioAssay data set” (2004).

Each structure is given as a SMILES string.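 Five compound concentrations were applied to cells in 96-well plates for 48 hours; endpoints were derived by simple linear interpolation of the resulting dose-response curve. Abbreviation: GI50, concentration required for 50% inhibition of growth.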 Calls of active or inactive are those of the source. Rule as the data show it: active = GI50 up to about 1.1 µM and inactive = higher.

What all share (assay): inhibition of tumour cell growth, NCI panel, 48 h
Assay [1] relates to EKVX.
The subject of assay [2] is COLO 205.
For assay [3], the system named is SK-OV-3.
For assay [4], the system named is OVCAR-3.
Assay [5] has as its system SK-MEL-2.
In assay [6] the test system is CAKI-1.
In assay [7] the test system is Malme-3M.
The test system of assay [8] is U-251.
The test system of assay [9] is SF-268.
For assay [10], the system named is SW-620.
Assay [11] has as its system RPMI-8226.
Assay [12] relates to SK-MEL-5.
The test system of assay [13] is A549.
In assay [14] the test system is A498.
Assay [15] concerns HCT-116.
Assay [16] deals with KM12.
For assay [17], the system named is LOX IMVI.
The subject of assay [18] is OVCAR-4.

As for `O=C1Cc2ccccc2N1c1c(Cl)cccc1Cl`, the GI50 in [1] was 63.5 µM (inactive); in assay [2], 42.3 µM (inactive); in assay [3], 0.424 µM (active); in assay [4] it was 57.1 µM (inactive); in assay [5], 28.5 µM (inactive); in [6], 61.1 µM (inactive). For the same compound, the GI50 in assay [7] was 56.8 µM (inactive); in assay [8], 63.7 µM (inactive); in assay [9], 71 µM (inactive); in assay [10] it was 38.6 µM (inactive); in [11], 19.6 µM (inactive); in [12], 32.8 µM (inactive). The GI50 is 50.2 µM (inactive) in assay [13]; 50.8 µM (inactive) in assay [14]; 45.6 µM (inactive) in assay [15]; 31.8 µM (inactive) in assay [16]; 49.5 µM (inactive) in assay [17]; 48 µM (inactive) in assay [18].
`CC1(c2ccc(F)cc2)C(C#N)C(=O)NC(=O)C1C#N` (configuration not stated): the GI50 is 58.1 µM (inactive) in assay [1]; > 100 µM (inactive) in [2]; > 100 µM (inactive) in [3]; > 100 µM (inactive) in assay [4]; > 100 µM (inactive) in assay [5]; > 100 µM (inactive) in [6]. The GI50 in assay [7], in assay [9], in [10], in assay [11], in assay [12] and in assay [13] was > 100 µM (inactive) throughout. The GI50 was 41.4 µM (inactive) in [14], > 100 µM (inactive) in [16], > 100 µM (inactive) in [17] and > 100 µM (inactive) in assay [18].
For `CC(C)(C)c1cc(Cc2ccc(S(C)(=O)=O)cc2)c(O)c(C(C)(C)C)c1`, the GI50 is 15.1 µM (inactive) in [1]; 21.7 µM (inactive) in assay [3]; 16.7 µM (inactive) in [5]; 16.2 µM (inactive) in assay [6]; 18.1 µM (inactive) in assay [7]; 15.1 µM (inactive) in assay [8]. The GI50 is 13.2 µM (inactive) in assay [9]; 17.1 µM (inactive) in [10]; 10.8 µM (inactive) in assay [11]; 16.3 µM (inactive) in [12]; 11.7 µM (inactive) in assay [13]; 16.1 µM (inactive) in assay [14]. Besides, the GI50 in assay [15] was 14 µM (inactive); in assay [16], 16.4 µM (inactive); in assay [17], 14.6 µM (inactive); in assay [18], 14.4 µM (inactive).
Regarding `CC(C)COC(=O)N1N=NC2C3CC(=O)C(O3)C21` (configuration not stated), the GI50 in assay [1], in [2], in assay [3], in assay [4], in assay [5] and in [6] was > 100 µM (inactive) each time. Further, the GI50 in assay [7], in [8], in [9], in [10], in assay [11] and in [12] was > 100 µM (inactive) throughout. Moreover, the GI50 in [13], in assay [14], in assay [15], in [16], in assay [17] and in assay [18] was > 100 µM (inactive) throughout.
As to `c1ccc(N2CCN(CCCN3CCc4c([nH]c5ccccc45)C3c3cccnc3)CC2)cc1` (configuration not stated), the GI50 in assay [1] was > 100 µM (inactive); in assay [2] it was 20.8 µM (inactive); in assay [3], > 100 µM (inactive); in assay [4], > 49.8 µM (inactive); in assay [5], > 100 µM (inactive); in [6] it was > 100 µM (inactive). Also, the GI50 was > 46.9 µM (inactive) in assay [7]; 19.1 µM (inactive) in [8]; > 100 µM (inactive) in assay [10]; 76.2 µM (inactive) in assay [11]; > 70.3 µM (inactive) in [12]; > 100 µM (inactive) in assay [13]. In addition, the GI50 in assay [14] was > 100 µM (inactive); in assay [15] it was 35.2 µM (inactive); in [16] it was 51.4 µM (inactive); in assay [17] it was 41.2 µM (inactive); in assay [18] it was 98.9 µM (inactive).
Regarding `CO/C(=N\N=C\c1ccc(Cl)cc1)c1ccncc1`, the GI50 in [1], in assay [2], in assay [3], in [4], in assay [5] and in assay [6] was > 100 µM (inactive) throughout. For the same compound, the GI50 in assay [7], in assay [8], in assay [9], in assay [10], in [11] and in assay [12] was > 100 µM (inactive) each time. The GI50 in assay [13], in assay [14], in assay [15], in [16] and in assay [18] was > 100 µM (inactive) each time.
With `Cc1ccc2c(c1-c1ccccc1)C(=O)OC2`, the GI50 was 17.1 µM (inactive) in [1]; > 100 µM (inactive) in assay [2]; > 100 µM (inactive) in [3]; 76.7 µM (inactive) in [4]; > 100 µM (inactive) in assay [5]; > 100 µM (inactive) in assay [6]. Further, the GI50 in assay [7], in [8], in assay [9], in [10], in assay [11] and in [12] was > 100 µM (inactive) each time. The GI50 in assay [13], in [14], in assay [15], in assay [16] and in assay [18] was > 100 µM (inactive) in each case.
`CCOc1cccc2[s+]snc12`: the GI50 in assay [1] is > 100 µM (inactive); in [2], > 100 µM (inactive); in assay [3] it was > 100 µM (inactive); in [4], 30.3 µM (inactive); in [5] it was > 100 µM (inactive); in assay [6], > 100 µM (inactive). Further, the GI50 was > 100 µM (inactive) in assay [7]; 33.8 µM (inactive) in [8]; 98.4 µM (inactive) in assay [9]; > 100 µM (inactive) in assay [10]; 23.6 µM (inactive) in assay [12]; > 100 µM (inactive) in assay [13]. The GI50 in assay [14] is > 100 µM (inactive); in [15], > 100 µM (inactive); in [16], > 100 µM (inactive); in [17], 50.1 µM (inactive); in assay [18], 58.5 µM (inactive).
Take `COC(=O)CCC(=O)CC(=O)C1=NS(=O)(=O)c2nc(S(N)(=O)=O)c(Cl)cc2N1`: the GI50 in assay [1], in [2], in [3], in assay [4], in [5] and in assay [6] was > 100 µM (inactive) throughout. Also, the GI50 in assay [7], in assay [8], in [9], in assay [11], in [12] and in [13] was > 100 µM (inactive) in each case. Further, the GI50 was > 100 µM (inactive) in assay [14]; > 100 µM (inactive) in [15]; > 100 µM (inactive) in [16]; 70.5 µM (inactive) in assay [17]; > 100 µM (inactive) in assay [18].
For `CCC1N2CCCCC2[C@@H]2c3[nH]c4ccccc4c3CCN12` (some centres not stated), the GI50 in assay [1], in assay [2], in [3], in assay [4], in [5] and in assay [6] was > 100 µM (inactive) in each case. Besides, the GI50 in [7], in [8], in assay [9], in assay [10], in assay [11] and in [12] was > 100 µM (inactive) each time. Also, the GI50 in assay [13], in [14], in assay [15] and in [18] was > 100 µM (inactive) throughout.
With `COc1ccc(NC(=O)C(=O)Cc2ccc([N+](=O)[O-])c([N+](=O)[O-])c2CC(=O)C(=O)Nc2ccc(OC)cc2OC)c(OC)c1`, the GI50 in assay [1], in assay [2], in [3], in [4], in assay [6] and in assay [7] was > 100 µM (inactive) each time. In addition, the GI50 in assay [8], in [9], in assay [10], in assay [11], in assay [13] and in [14] was > 100 µM (inactive) throughout. In addition, the GI50 in assay [15], in [16], in [17] and in assay [18] was > 100 µM (inactive) in each case.
In the case of `Cc1ccc(N2C(=O)N(c3ccc(C)cc3)C3(SC=NN3C)C2=O)cc1` (configuration not stated), the GI50 was > 100 µM (inactive) in assay [1]; 91 µM (inactive) in assay [2]; > 100 µM (inactive) in [3]; 19.5 µM (inactive) in assay [4]; 83.2 µM (inactive) in assay [6]; 95.5 µM (inactive) in [7]. In addition, the GI50 in [8] is > 100 µM (inactive); in [9] it was > 100 µM (inactive); in assay [10], > 100 µM (inactive); in assay [11], 49.2 µM (inactive); in [12], 30 µM (inactive); in assay [13], 50.5 µM (inactive). For the same compound, the GI50 in [14] is 73.1 µM (inactive); in assay [15], 46.6 µM (inactive); in assay [16] it was 47.6 µM (inactive); in assay [17] it was 32.3 µM (inactive); in assay [18] it was 95.5 µM (inactive).
